This note sets out measurements from a melting point compilation (Tetko et al.; mined from patent text by program, amines drawn as free bases though some values may be those of a salt).

Structures are written as SMILES.

The melting point is the temperature, or range, at which the solid turns liquid. With `O=C1c2c(Br)cccc2S(=O)(=O)N1CCl`, the melting point is 157 to 159 °C.
Next, `COCCOC(=O)Nc1cc(N2CC=CCC2)nc(N)n1`: 136 °C; `CCN(c1ccc(C(=O)O)cc1)c1cc2c3c(c1)CCCC3(C)CCC2`: 279 to 280 °C.
Next, `COc1cc(C(=O)CCCc2ccccc2)ccc1O`: 91 to 92 °C.
As to `Cc1nc2cc3c(cc2[nH]1)C(C)(C)CC(=O)N3`, the melting point lay within 290 to 294 °C.
In turn, `COc1cc(C#CCO)cc2c(O)c(C(=O)NCc3ccc(Cl)cc3)cnc12` showed a melting point of 207 to 208 °C.
In turn, `Cc1ccc(C(=O)NC(NC(=S)Nc2cccnc2)c2ccccc2)cc1` (centres undefined) displayed a melting point of 156 to 158 °C.
Molecule `CCN(CCc1c[nH]c2ccccc12)C(=O)CCCC(=O)OC` came in with a melting point of 73 to 75 °C.
Next, `N#Cc1ncc(NCCO)nc1N1CCC(c2ccc(F)cc2)CC1`: 155 to 158 °C.
`CC(C)(C)c1cc(SC2(Sc3cc(C(C)(C)C)c(O)c(C(C)(C)C)c3)CCCCC2)cc(C(C)(C)C)c1O` came in with a melting point of 195 to 197 °C.
Next, `CCCCOC(=O)[C@H]1CN(c2ccc(N3CCSCC3)cc2)C(=O)O1`: 95.5 to 98 °C; `COc1ccc(C(=O)Nc2c(Cl)cncc2Cl)c2cc(C)oc12`: 233 °C; `O=C(c1ccc(I)cc1)c1ccc2noc(-c3cccc(Cl)c3)c2c1`: 196 °C.
The figure for `CC(C)C(NC(=O)OCc1csc(N2CCCC2)n1)C(=O)NC(Cc1ccccc1)CC(O)C(Cc1ccccc1)NC(=O)OCc1cncs1` (centres undefined) is 146 to 148 °C; for `COC(=O)C(=O)c1c(Cl)cc(OCCOc2ccc3ccccc3c2)cc1Cl` it is 142 to 144 °C; for `CCOC(=O)[C@H](Cc1cccc(Oc2ccc3ccccc3c2)c1)NC(=O)C(F)(F)F` it is 78 to 80 °C.
Next, `Cc1cccc(NC(=O)CN2CCN(c3ccccc3[N+](=O)[O-])CC2)c1`: 172 to 175 °C; `O=C(O)c1csc2ccc(OS(=O)(=O)c3ccccc3)cc12`: 202 to 203 °C.
`CSC(Nc1cccc(CNC(=O)OC(C)(C)C)c1)=C(C#N)C#N` displayed a melting point of 150 to 151 °C.
The figure for `CC(C)(CNC(=O)C(O)CO)c1ccc(C(=O)Nc2cn3cc(Cl)ccc3n2)cc1` (centres undefined) is 228 to 229 °C; for `O=C(CCCCCCCCCCCCC(=O)ON1C(=O)CCC1=O)OCc1ccccc1` it is 61.5 to 62.5 °C; for `CCOc1nc2ccnn2c2ncccc12` it is 162 °C.
The figure for `CCOC(=O)c1nc(CCS(=O)(=O)c2ccc(Cl)cc2)no1` is 115 to 119 °C.
Next, `CC(=O)c1nc2cc(Cl)c(OCC(F)(F)F)cc2cc1OCc1ccccc1`: 110 to 112 °C; `CCCCc1nn(-c2cc(N)ccc2Br)c(=O)n1Cc1ccc(-c2ccccc2S(=O)(=O)NC(C)(C)C)cc1F`: 103 to 105 °C; `Cc1oc(-c2ccccc2)nc1COc1ccc2cc(CCCCc3nnn[nH]3)oc2c1`: 114 to 115 °C.
Turning to `CCOC(=O)c1cc(N)nc(SCc2ccc3ccccc3c2)n1`, the melting point was 188 to 189 °C.
The figure for `CCOc1ccc2[nH]c(=O)n(-c3ccc(C(C)C)cc3)c2c1` is 100 °C; for `O=C(Nc1ccc(F)cc1F)c1cccc(Cl)n1` it is 86 to 87 °C; for `COc1cc(NCCCCCCN2CCN(C(=NC#N)SC)CC2)c2nccc(C)c2c1` it is 97 to 99 °C.
Next, `Cc1sc2c(Br)c3ccccc3c(-c3cc(C(C)C)c(O)c(C(C)C)c3)c2c1C`: 212 to 216 °C.
`Nc1c([N+](=O)[O-])sc2cccc(Cl)c12` had a melting point of 174 to 175 °C.
Next, `Cc1ccc(-c2cccc(/C=C/C(=O)Nc3ccc(-c4ccccn4)cc3)c2)cc1`: 220 to 222 °C; `NS(=O)(=O)N1CCC(CCNC(=O)c2cc(Cl)ccn2)CC1`: 186 to 187 °C.
Next, `CCC(=O)NCC1CC1c1c(Cl)ccc2nn(C)cc12` (centres undefined): 152 to 153 °C; `Cn1c(=O)c2c(ncn2CCCOS(C)(=O)=O)n(C)c1=O`: 112 to 113 °C; `Cn1nc(-c2c(F)cccc2Cl)nc1COc1ccc(C(C)(C)C)cc1`: 84 to 86 °C.
The figure for `COc1cc(C(C)C)c2c(c1)S(=O)(=O)N(COc1cc(C#N)nn1-c1ccc(Cl)cc1Cl)C2=O` is 183 to 184 °C.
Take `COc1cc(Cc2ccc3nc(N)nc(N)c3c2)cc(OC)c1`: the melting point is 230 to 232 °C.
Next, `Cc1ccc2c(c1)oc1c(C(=O)NC3C4CC5CC(C4)CC3C5)nn(-c3ccc(Cl)cc3Cl)c12` (centres undefined): 209 to 211 °C.
With `CC(=O)Nc1nc(-c2ccccc2)c(-c2ccc(=O)n(C(C)C)n2)s1`, the melting point is 202 to 204 °C.
The figure for `Nc1ccc(C(=O)N2CCOCC2)cc1OCc1ccc(-c2ccccc2)c(-c2nnnn2C(c2ccccc2)(c2ccccc2)c2ccccc2)c1` is 95 to 105 °C.
With `CCCCNC(=O)Oc1ccc(Oc2ccc([N+](=O)[O-])cc2)cc1`, the melting point was 122 to 124 °C.
For the molecule `COCSc1nccn1-c1cccc(C2=Nc3ccc(-c4ccccc4F)cc3NC(=O)C2)c1`, the melting point fell in the range of 189 to 190 °C.
The figure for `OC1CSC(Oc2cccc(-c3cccnc3Cl)c2)C(O)C1O` (centres undefined) is 130 °C; for `S=C(Cl)c1cc(C(Cl)(Cl)Cl)c(Cl)cc1Cl` it is 79 to 81 °C; for `N#Cc1cccc(C(CC(=O)O)N2C(=O)c3ccccc3C2=O)c1` (centres undefined) it is 217 to 220 °C.
Next, `O=C(O)c1ccc(OCc2ccccc2)c(Cl)c1`: 211 to 213 °C.
For `CC(=O)Nc1c([N+](=O)[O-])c(Br)nn1-c1c(Cl)cc(C(F)(F)F)cc1Cl`, the melting point was 179 to 180 °C.
The figure for `NC(=O)[C@@H](CCC(F)(F)F)N(Cc1ccc(-c2ncon2)cc1F)S(=O)(=O)c1ccc(Cl)cc1` is 66 to 68 °C; for `CC(C)C(O)c1ccc2oc3ncccc3c(=O)c2c1` (centres undefined) it is 160 °C.
Consider `CC(C)(C)OC(=O)N1c2ncc(Br)cc2C=CC1N` (centres undefined), for which the melting point was greater than 230 °C.
The figure for `COc1ccc(OCC(O)CNCCNc2c(C)c(=O)n(C)c(=O)n2C)cc1` (centres undefined) is 115 to 117 °C; for `Cc1ccc([N+](=O)[O-])c(=O)[nH]1` it is 222 to 223 °C; for `CCOC(=O)CCNC(=O)Nc1ccccc1CCc1cc(C(C)(C)C)c(O)c(C(C)(C)C)c1` it is 158 to 159 °C.
Next, `CCCC(=O)C(=CNc1cscc1OC)C(=O)OCC`: 89 to 91 °C; `O=C(Nc1ccc2c(c1)CCC2=O)c1ccc(-c2ccccc2)cc1`: 217 to 219 °C; `NC1CC(N)(C(=O)O)C2C(C(=O)O)C12` (centres undefined): greater than 275 °C.
The figure for `N#CCc1cc(C(=O)O)cs1` is 154 to 159 °C; for `Cc1ccc(N2C(=O)C(O)=C(C(=O)c3ccc(C(F)(F)F)nc3)C2c2ccc(OC(F)(F)F)cc2)nn1` (centres undefined) it is 172 °C.
`COC(=O)CCC(Oc1cccc2c1cc(C)n2Cc1ccccc1)C(=O)OC` (centres undefined) had a melting point of 139 to 141 °C.
The figure for `CN(C)c1ccc2c(n1)C(c1ccccc1Cl)=NCc1nncn1-2` is 240 to 242 °C; for `CCC1C(=O)N2CCCC(C(=O)OC(C)(C)C)N2C1=O` (centres undefined) it is 93 to 95 °C.
Next, `COc1nccc2c(=O)n(C)c(N3C=CC(OC4CCN(C5CCC5)CC4)=NC3)nc12`: 199 to 200 °C.
Next, `COC(=O)C1=C(C)NC(C)=C(C(=O)OCCCl)C1c1cccc(Br)n1` (centres undefined): 152 to 153 °C; `COC(=O)C(C)(Cc1ccc(OCCc2nc(-c3ccccc3)oc2C)cc1)C(=O)OC`: 75.1 to 76 °C; `CC(=O)N[C@H]1CCCc2ccccc21`: 153 to 155 °C.
The molecule `CC(C)CCNC(Nc1ccccc1)=C(C#N)C#N` showed a melting point of 183 to 185 °C.
The figure for `CCOC(=O)c1cnc2c(c(C)nc3cc(C)nn32)c1NC(C)CC` (centres undefined) is 113 to 115 °C.
Next, `CCCCCCNC(=O)Nc1cccc(Oc2ccc3nc(COc4ccc(CC5SC(=O)NC5=O)cc4)n(C)c3c2)c1` (centres undefined): 144 to 147 °C.
Next, `Clc1cc(N2Cc3ccccc3C2)nc2ccccc12`: 172 to 173 °C; `COc1ccc2cc(N)ccc2c1`: 133 to 136 °C; `CS(=O)(=O)NCC1COCc2nc3c(N)nc4ccccc4c3n21` (centres undefined): 285 to 288 °C.
`COC(=O)CSc1cccc(Br)n1` came in with a melting point of 32 to 34 °C.
Next, `COC(=O)C(=O)c1ccnc(NC=O)n1`: 143 to 144 °C; `COC(=O)CCCCc1ccc(C(=O)Cc2ccccc2)cc1`: 53.5 to 54 °C.
The figure for `Cn1c2cc3ccccc3nc2c2c(Cl)cccc21` is 228 to 230 °C; for `NC(=O)C(N)c1ccc(Cl)cc1Cl` (centres undefined) it is 114 °C; for `Cc1ccc(S(=O)(=O)C(CCCCCOc2ccc(Cl)cc2)C(=O)O)cc1` (centres undefined) it is 88 to 90 °C.
For the molecule `CCOC(=O)Cc1cccc(-c2nc(COc3ccc(CCl)cc3OC)c(C)o2)c1`, the melting point lay within 95 to 96 °C.
On to `CCN1CCN(Cc2ccc(COc3cccc4c3CN(C3CCC(=O)NC3=O)C4=O)cc2)CC1=O` (centres undefined), for which the melting point lay within 163 to 165 °C.
The figure for `COC(=O)CC[C@@H](CF)NC(=O)OCc1ccccc1` is 46 to 48 °C.
Next, `C#CCOc1cc(Oc2cc(Cl)ccc2Cl)ncn1`: 87.7 °C.
On to `CCOC(=O)c1c(NC2CC(C)(C)NC(C)(C)C2)cc(C)nc1C`, for which the melting point was 89 to 90 °C.
The figure for `Cc1cccc(-c2nc3cnccc3[nH]2)c1` is 202 to 204 °C; for `Nc1cc(-c2noc(-c3cnn4c(C(F)(F)F)cc(-c5ccc(C(F)(F)F)cc5)nc34)n2)ccn1` it is 277 °C.
Regarding `COc1nc2oc(-c3ccccc3)nc2cc1C`, the melting point lay within 167 to 168 °C.
Next, `CCCc1c(C(=O)CC(C)OC)c2ccc(C(N)=O)cc2n1Cc1ccccc1Cl` (centres undefined): 155 to 157 °C.
The figure for `COC(=O)C1CCCCc2c1ncn2C(c1ccccc1)(c1ccccc1)c1ccccc1` (centres undefined) is 161 to 163 °C.
